Experimental data taken from patent publication US11673894B2, “Imidazopyrimidines and triazolopyrimidines as A2A / A2B inhibitors” (Incyte Corporation, priority 2018, dated 2023).

Experiments:
Adenosine A2A receptor = Adenosine A2A receptor (Homo sapiens (Human), UniProt P29274); test: A2A Tag-lite HTRF Assay; settings: Tag-lite Adenosine A2A labeled cells; A2A Receptor Red antagonist fluorescent ligand 12.5 nM; one-site competitive binding model; read-out: A2A_Ki
Source text: The final concentration of DMSO was 1%.

[1] = biological target: human adenosine A2B receptor (Homo sapiens (Human), UniProt P29275); test: Adenosine A2B Receptor Cyclic AMP GS Assay; assay type: cell-based; settings: HEK-293 cells expressing human A2B receptor; agonist NECA at 12 nM; cAMP accumulation (FRET); read-out: A2B_cAMP_EC50
Chain of human adenosine A2B receptor (P29275 whole entry): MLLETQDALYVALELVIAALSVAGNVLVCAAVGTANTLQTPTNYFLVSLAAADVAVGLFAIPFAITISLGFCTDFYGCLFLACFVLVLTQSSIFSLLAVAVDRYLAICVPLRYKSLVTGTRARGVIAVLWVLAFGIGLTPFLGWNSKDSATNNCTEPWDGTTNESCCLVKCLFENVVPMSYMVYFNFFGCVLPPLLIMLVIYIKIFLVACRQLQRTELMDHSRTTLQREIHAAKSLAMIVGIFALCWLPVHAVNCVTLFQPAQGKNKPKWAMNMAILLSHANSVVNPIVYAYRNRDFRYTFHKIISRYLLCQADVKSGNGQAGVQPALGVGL
Experimental: Stably transfected HEK-293 cells expressing the human adenosine A2B receptor (Perkin Elmer) were maintained in MEM culture medium with 10% FBS and 100 μg/ml Geneticin (Life Technologies). 18 to 24 hours prior to assay, geneticin was removed from culture. The cisbio cAMP-GS Dynamic kit utilizing the FRET (Fluorescence Resonance Energy Transfer) technology was used to measure cAMP accumulation in the cells. Compounds of the present disclosure at an appropriate concentration were mixed with 10000 cells/well in white 96 well half area plates (Perkin Elmer) for 30 min at RT gently shaking. Agonist, NECA (R&D Technologies) at 12 nM was added to each well for 60 min at RT gently shaking. Detection reagents, d2-labeled cAMP (acceptor) and anti-cAMP cryptate (donor) were added to each well for 60 min at RT gently shaking. Plates were read on Pherastar (BMG Labtech), fluorescence ratio 665/620 was calculated and EC50 determination was performed by fitting the curve of percent of control versus the log of the compound concentration using GraphPad Prism.

Chain of Adenosine A2A receptor (P29274 whole entry): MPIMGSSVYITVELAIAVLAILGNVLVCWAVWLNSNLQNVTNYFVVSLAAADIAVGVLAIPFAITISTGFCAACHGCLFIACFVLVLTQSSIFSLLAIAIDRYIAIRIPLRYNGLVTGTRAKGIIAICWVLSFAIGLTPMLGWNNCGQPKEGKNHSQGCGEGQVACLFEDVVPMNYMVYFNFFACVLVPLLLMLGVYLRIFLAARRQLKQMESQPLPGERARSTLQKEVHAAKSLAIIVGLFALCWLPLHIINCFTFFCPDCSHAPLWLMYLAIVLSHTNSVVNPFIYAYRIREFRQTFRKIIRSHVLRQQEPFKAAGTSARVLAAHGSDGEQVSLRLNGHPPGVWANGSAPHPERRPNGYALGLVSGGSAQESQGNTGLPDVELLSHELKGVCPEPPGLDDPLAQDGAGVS

Row | SMILES | Ki (Adenosine A2A receptor) | EC50 [1]
1 | CCNC(=O)c1cn2c(N)nc(-c3cccc(C#N)c3)c(-c3ccncc3C#N)c2n1 [Example 31, 5-Amino-7-(3-cyanophenyl)-N-ethyl-8-(3-cyanopyridin-4-yl)imidazo[1,2-c]pyrimidine-2-carboxamide] | < 10 nM | 10 to 100 nM
2 | CCNC(=O)c1cn2c(N)nc(-c3cccc(C#N)c3)c(-c3ccc(C(N)=O)cc3)c2n1 [Example 32, 5-Amino-8-(4-carbamoylphenyl)-7-(3-cyanophenyl)-N-ethylimidazo[1,2-c]pyrimidine-2-carboxamide] | < 10 nM | 100 to 1000 nM
3 | CCNC(=O)c1cn2c(N)nc(-c3cccc(C#N)c3)c(-c3cnn4ccccc34)c2n1 [Example 33, 5-Amino-7-(3-cyanophenyl)-N-ethyl-8-(pyrazolo[1,5-a]pyridin-3-yl)imidazo[1,2-c]pyrimidine-2-carboxamide] | < 10 nM | 100 to 1000 nM
4 | CCNC(=O)c1cn2c(N)nc(-c3cccc(C#N)c3)c(-c3cn[nH]c3C)c2n1 [Example 34, 5-Amino-7-(3-cyanophenyl)-N-ethyl-8-(5-methyl-1H-pyrazol-4-yl)imidazo[1,2-c]pyrimidine-2-carboxamide] | < 10 nM | < 10 nM
5 | CCNC(=O)c1cn2c(N)nc(-c3cccc(C#N)c3)c(-c3ccnn3CC)c2n1 [Example 35, 5-Amino-7-(3-cyanophenyl)-N-ethyl-8-(1-ethyl-1H-pyrazol-5-yl)imidazo[1,2-c]pyrimidine-2-carboxamide] | < 10 nM | < 10 nM
6 | CCNC(=O)c1cn2c(N)nc(-c3cccc(C#N)c3)c(-c3ccnn3C(C)C)c2n1 [Example 36, 5-Amino-7-(3-cyanophenyl)-N-ethyl-8-(1-isopropyl-1H-pyrazol-5-yl)imidazo[1,2-c]pyrimidine-2-carboxamide] | < 10 nM | 10 to 100 nM
7 | CCCn1nccc1-c1c(-c2cccc(C#N)c2)nc(N)n2cc(C(=O)NCC)nc12 [Example 37, 5-Amino-7-(3-cyanophenyl)-N-ethyl-8-(1-propyl-1H-pyrazol-5-yl)imidazo[1,2-c]pyrimidine-2-carboxamide] | < 10 nM | < 10 nM

The next lines start with the values.

Row | Ki (Adenosine A2A receptor) | EC50 [1] | SMILES
8 | < 10 nM | 10 to 100 nM | CCNC(=O)c1cn2c(N)nc(-c3cccc(C#N)c3)c(-c3ccncn3)c2n1 [Example 38, 5-Amino-7-(3-cyanophenyl)-N-ethyl-8-(pyrimidin-4-yl)imidazo[1,2-c]pyrimidine-2-carboxamide]
9 | < 10 nM | 10 to 100 nM | CCNC(=O)c1cn2c(N)nc(-c3cccc(C#N)c3)c(-c3ccnc4c3OCCO4)c2n1 [Example 39, 5-Amino-7-(3-cyanophenyl)-8-(2,3-dihydro-[1,4]dioxino[2,3-b]pyridin-8-yl)-N-ethylimidazo[1,2-c]pyrimidine-2-carboxamide]
10 | 10 to 100 nM | > 1000 nM | CCNC(=O)c1cn2c(N)nc(-c3cccc(C#N)c3)c(C3CC3)c2n1 [Example 40, 5-Amino-7-(3-cyanophenyl)-8-cyclopropyl-N-ethylimidazo[1,2-c]pyrimidine-2-carboxamide]
11 | < 10 nM | < 10 nM | N#Cc1cccc(-c2nc(N)n3nc(Cc4ccccn4)nc3c2-c2ccncn2)c1 [Example 41, 3-(5-Amino-2-(pyridin-2-ylmethyl)-8-(pyrimidin-4-yl)-[1,2,4]triazolo[1,5-c]pyrimidin-7-yl)benzonitrile]
12 | < 10 nM | < 10 nM | CCn1nccc1-c1c(-c2cccc(C#N)c2)nc(N)n2nc(Cc3ccccn3)nc12 [Example 42, 3-(5-Amino-8-(1-ethyl-1H-pyrazol-5-yl)-2-(pyridin-2-ylmethyl)-[1,2,4]triazolo[1,5-c]pyrimidin-7-yl)benzonitrile]
13 | < 10 nM | < 10 nM | CCCn1nccc1-c1c(-c2cccc(C#N)c2)nc(N)n2nc(Cc3ccccn3)nc12 [Example 43, 3-(5-Amino-8-(1-propyl-1H-pyrazol-5-yl)-2-(pyridin-2-ylmethyl)-[1,2,4]triazolo[1,5-c]pyrimidin-7-yl)benzonitrile]
